In US4987067A, “Maltooligosaccharide derivatives and reagents for determination of amylase activity” (Yoshitomi Pharmaceutical Industries, Ltd., priority 1987, dated 1991):

Columns and labels:
[1] = Dissolution of substrate in the reagents of Example 3; format: physicochemical; conditions: reagents of Example 3 without their substrates, 50 mM Good Buffer pH 7.0; substrate 2 mM in Example 3
Excerpt: An attempt was made to use the substrates listed below instead of the substrates in Example 3, but the former substrates were not dissolved in the reagents in Example 3 (excluding substrates in Example 3).

[2] = test system: α-amylase; assay: Change in absorbance per minute at 400 nm with sample serum (indication of amylase activity); format: biochemical; conditions: 3 ml reagent added to sample serum, 5-6 minutes at 37° C.
Description: (§1) With this reagent, variation in absorbance was determined in a similar manner to Example 2. A 3 ml quantity of the reagent was added to […] of sample serum and allowed to stand for 5-6 minutes at 37° C. and thereafter, the variation in absorbance at 400 nm was determined and the change in absorbance per one minute which is an indication of amylase activity was calculated The variation in blank value of the reagent with time and the change in absorbance per minute are shown in Table 2 below.

[3] = test system: α-Glucosidase, β-Glucosidase; assay: Variation in blank value of reagent with time (absorbance at 400 nm), reagent with α-glucosidase and β-glucosidase; format: biochemical; conditions: substrate 2 mM
Description: Reagents having the following composition were prepared.
50 mM Good Buffer (pH 7.0)
Substrate (see Table 1) 2 mM
Immediately after the preparation of the reagents, after 10 minutes, 20 minutes and 30 minutes, the absorbance of each reagent at 400 nm was determined (3 ml of reagent sample; 37° C.).
The reagent having the following composition was prepared:
(§2) Substrate (see Table 2) 2 mM

[4] = test system: α-Glucosidase, β-Glucosidase, Glucoamylase; assay: Variation in blank value of reagent with time (absorbance at 400 nm), reagent with α-glucosidase, β-glucosidase and glucoamylase; format: biochemical; conditions: Table 2, glucoamylase added (10 U/ml), substrate 2 mM; for Absorbance at 400 nm (blank value), on reaction initiation: pH 7.0, α-glucosidase 80 U/ml, β-glucosidase 10 U/ml; for Absorbance at 400 nm (blank value), after 10 min. / Absorbance at 400 nm (blank value), after 20 min. / Absorbance at 400 nm (blank value), after 30 min.: pH 7.0
Description: as §1
The reagent of the following composition was prepared:
as §2

[5] = Table 1, 50 mM Good Buffer pH 7.0, α-glucosidase 80 U/ml, β-glucosidase 10 U/ml, 37° C., immediately after preparation
[6] = Table 1, pH 7.0, α-glucosidase 80 U/ml, β-glucosidase 10 U/ml, 37° C.
[7] = Table 2, no glucoamylase, pH 7.0

Structure (SMILES)	Solubility of substrate in the reagents in Example 3 [1]	Change in absorbance ([2]; glucoamylase added (10 U/ml)) [per minute]	Absorbance at 400 nm (blank value), on reaction initiation [3, 5]	Absorbance at 400 nm (blank value), after 10 min. [3, 6]	Absorbance at 400 nm (blank value), after 20 min. [3, 6]	Absorbance at 400 nm (blank value), after 30 min. [3, 6]	Absorbance at 400 nm (blank value), on reaction initiation [4]	Absorbance at 400 nm (blank value), after 10 min. [4]	Absorbance at 400 nm (blank value), after 20 min. [4]	Absorbance at 400 nm (blank value), after 30 min. [4]	further results
CC(=O)CC1OC[C@H]2O[C@H](O[C@H]3[C@H](O)[C@@H](O)[C@@H](O[C@H]4[C@H](O)[C@@H](O)[C@@H](O[C@H]5[C@H](O)[C@@H](O)[C@@H](O[C@H]6[C@H](O)[C@@H](O)[C@H](Oc7ccc([N+](=O)[O-])cc7Cl)O[C@@H]6CO)O[C@@H]5CO)O[C@@H]4CO)O[C@@H]3CO)[C@H](O)[C@@H](O)[C@@H]2O1 (stereo partly drawn) [Example 2, 3-ketobutylidene 2-chloro-4-nitrophenyl-β-maltopentaoside]	–	0.157	0.049	0.049	0.049	0.050	0.051	0.051	0.051	0.052	Change in absorbance ([2]; no glucoamylase): 0.123 per minute; Absorbance at 400 nm (blank value), on reaction initiation ([3]; Table 2, no glucoamylase, pH 7.0, α-glucosidase 80 U/ml, β-glucosidase 10 U/ml): 0.050; Absorbance at 400 nm (blank value), after 10 min. [3, 7]: 0.051; Absorbance at 400 nm (blank value), after 20 min. [3, 7]: 0.051; Absorbance at 400 nm (blank value), after 30 min. [3, 7]: 0.051
O=[N+]([O-])c1ccc(O[C@@H]2O[C@H](CO)[C@@H](O[C@H]3O[C@H](CO)[C@@H](O[C@H]4O[C@H](CO)[C@@H](O[C@H]5O[C@H](CO)[C@@H](O[C@H]6O[C@H](CO)[C@@H](O)[C@H](O)[C@H]6O)[C@H](O)[C@H]5O)[C@H](O)[C@H]4O)[C@H](O)[C@H]3O)[C@H](O)[C@H]2O)c(Cl)c1 [compound 1, 2-chloro-4-nitrophenyl-β-maltopentaoside, reference compound]	–	0.136	0.251	0.273	0.293	0.323	0.132	0.162	0.192	0.223	–

The next lines start with results.

Solubility of substrate in the reagents in Example 3 [1]	Structure (SMILES)	Change in absorbance ([2]; glucoamylase added (10 U/ml)) [per minute]	Absorbance at 400 nm (blank value), on reaction initiation [3, 5]	Absorbance at 400 nm (blank value), after 10 min. [3, 6]	Absorbance at 400 nm (blank value), after 20 min. [3, 6]	Absorbance at 400 nm (blank value), after 30 min. [3, 6]	Absorbance at 400 nm (blank value), on reaction initiation [4]	Absorbance at 400 nm (blank value), after 10 min. [4]	Absorbance at 400 nm (blank value), after 20 min. [4]	Absorbance at 400 nm (blank value), after 30 min. [4]	further results
not dissolved	CC1(C)OC[C@H]2O[C@H](O[C@H]3[C@H](O)[C@@H](O)[C@@H](O[C@H]4[C@H](O)[C@@H](O)[C@@H](O[C@H]5[C@H](O)[C@@H](O)[C@@H](O[C@H]6[C@H](O)[C@@H](O)[C@H](Oc7ccc([N+](=O)[O-])cc7Cl)O[C@@H]6CO)O[C@@H]5CO)O[C@@H]4CO)O[C@@H]3CO)[C@H](O)[C@@H](O)[C@@H]2O1 [Isopropylidene 2-chloro-4-nitrophenyl-β-maltopentaoside]	–	–	–	–	–	–	–	–	–	–
not dissolved	O=[N+]([O-])c1ccc(O[C@@H]2O[C@H](CO)[C@@H](O[C@H]3O[C@H](CO)[C@@H](O[C@H]4O[C@H](CO)[C@@H](O[C@H]5O[C@H](CO)[C@@H](O[C@H]6O[C@@H]7COC(c8ccccc8)O[C@H]7[C@H](O)[C@H]6O)[C@H](O)[C@H]5O)[C@H](O)[C@H]4O)[C@H](O)[C@H]3O)[C@H](O)[C@H]2O)c(Cl)c1 (stereo partly drawn) [Benzylidene 2-chloro-4-nitrophenyl-β-maltopentaoside]	–	–	–	–	–	–	–	–	–	–
not dissolved	O=[N+]([O-])c1ccc(O[C@@H]2O[C@H](CO)[C@@H](O[C@H]3O[C@H](CO)[C@@H](O[C@H]4O[C@H](CO)[C@@H](O[C@H]5O[C@H](CO)[C@@H](O[C@H]6O[C@@H]7COCO[C@H]7[C@H](O)[C@H]6O)[C@H](O)[C@H]5O)[C@H](O)[C@H]4O)[C@H](O)[C@H]3O)[C@H](O)[C@H]2O)c(Cl)c1 [Methylidene 2-chloro-4-nitrophenyl-β-maltopentaoside]	–	–	–	–	–	–	–	–	–	–
